Four compounds from patent publication US7732464B2, “Heterocyclic substituted 4-(aminomethyl)-piperidine benzamides as 5HT4-antagonists” (Janssen Pharmaceutica, N.V., priority 2003, dated 2010) can be followed below.

Series [1] in a line: Metabolic stability: incubation with liver microsomes and NADPH-generating system, LC-MS analysis. Type of series: in vitro ADME. The note with it: compound 5 μM; microsomes 1 mg/ml; NADPH-generating system; 60 minutes at 37 degrees Celsius. The protocol:
Sub-cellular tissue preparations were made according to Gorrod et al. (Xenobiotica 5: 453-462, 1975) by centrifugal separation after mechanical homogenization of tissue. Liver tissue was rinsed in ice-cold 0.1 M Tris-HCl (pH 7.4) buffer to wash excess blood. Tissue was then blotted dry, weighed and chopped coarsely using surgical scissors. The tissue pieces were homogenized in 3 volumes of ice-cold 0.1 M phosphate buffer (pH 7.4).
Tissue homogenates were centrifuged at 9000×g for 20 minutes at 4° C. The resulting supernatant was stored at −80° C. and is designated ‘S9’.
The S9 fraction can be further centrifuged at 100.000×g for 60 minutes (4° C.). The resulting supernatant was carefully aspirated, aliquoted and designated ‘cytosol’. The pellet was re-suspended in 0.1 M phosphate buffer (pH 7.4) in a final volume of 1 ml per 0.5 g original tissue weight and designated ‘microsomes’.
All sub-cellular fractions were aliquoted, immediately frozen in liquid nitrogen and stored at −80° C. until use.
For the samples to be tested, the incubation mixture contained PBS (0.1M), compound (5 μM), microsomes (1 mg/ml) and a NADPH-generating system (0.8 mM glucose-6-phosphate, 0.8 mM magnesium chloride and 0.8 Units of glucose-6-phosphate dehydrogenase). Control samples contained the same material but the microsomes were replaced by heat inactivated (10 minutes at 95 degrees Celsius) microsomes. Recovery of the compounds in the control samples was always 100%.
The mixtures were preincubated for 5 minutes at 37 degrees Celsius. The reaction was started at time point zero (t=0) by addition of 0.8 mM NADP and the samples were incubated for 60 minutes (t=60). The reaction was terminated by the addition of 2 volumes of DMSO. Then the samples were centrifuged for 10 minutes at 900×g and the supernatants were stored at room temperature for no longer as 24 hours before analysis. All incubations were performed in duplo. Analysis of the supernatants was performed with LC-MS analysis. Elution of the samples was performed on a Xterra MS C18 (50×4.6 mm, 5 μm, Waters, US). An Alliance 2790 (Supplier: Waters, US) HPLC system was used. Elution was with buffer A (25 mM ammoniumacetate (pH 5.2) in H2O/acetonitrile (95/5)), solvent B being acetonitrile and solvent C methanol at a flow rate of 2.4 ml/min. The gradient employed was increasing the organic phase concentration from 0% over 50% B and 50% C in 5 min up to 100% B in 1 minute in a linear fashion and organic phase concentration was kept stationary for an additional 1.5 minutes. Total injection volume of the samples was 25 μl.
A Quatro triple quadrupole mass spectrometer fitted with and ESP source was used as detector. The source and the desolvation temperature were set at 120 and 350° C. respectively and nitrogen was used as nebuliser and drying gas. Data were acquired in positive scan mode (single ion reaction). Cone voltage was set at 10 V and the dwell time was 1 second.
Metabolic stability was expressed as % metabolism of the compound after 60 minutes (equation given as Example) of incubation in the presence of active microsomes E(act))
In general terms: Liver microsomes are vesicles of endoplasmic reticulum, rich in cytochrome P450 enzymes.

The next series has as its target T1, h5-HT4b (Homo sapiens, UniProt Q13639).
T1 construct: expressed in transfected cells; host or cells: HEK 293 (clone 9), membrane preparation
In words: 5HT4 antagonism: [3H]GR113808 binding to membranes of h5-HT4b-HEK 293 clone 9 cells. The note with it: displacement of [3H]GR113808 0.1 nM; h5-HT4b-HEK 293 membranes; 30 min at 25° C.; read-out: pIC50 (5HT4 antagonistic data) (converted). The protocol: h5-HT4b-HEK 293 clone 9 cells were cultured in 150 mm Petri dishes and washed twice with cold PBS. The cells were then scraped from the plates and suspended in 50 mM Tris-HCl buffer, pH 7.4 and harvested by centrifugation at 23,500 rpm for 10 minutes. The pellet was resuspended in 5 mM Tris-HCl, pH 7.4 and homogenized with an Ultra Turrax homogenizer. The membranes were collected by centrifugation at 30,000 rpm for 20 min, resuspended in 50 mM Tris-HCl pH 7.4 and stored at −80° C. For the experiment, assay mixtures (0.5 ml) contained 50 μl of the tritiated ligand (5-HT4 antagonist [^3H]GR113808 0.1 nM) and 0.4 ml membrane preparation (15 μg protein/ml). 50 μl of 10% DMSO was added for total binding. 50 μl of 1 μM of (+)-trans-(1-butyl-3-hydroxy-4-piperidinyl)methyl 8-amino-7-chloro-2,3-dihydro-1,4-benzodioxin-5-carboxylate (a proprietary 5HT4 agonist of Janssen Pharmaceutica) was added for determination of non-specific binding.
The [^3H]GR113808 assay buffer was 50 mM HEPES-NaOH, pH 7.4. The mixtures were incubated for 30 min at 25° C. The incubation was terminated by filtration over a Unifilter 96 GF/B presoaked in 0.1% polyethylenimine, followed by six washing steps with 50 mM HEPES-NaOH, pH 7.4.
(In general: In a radioligand displacement assay an active substance lowers the binding of a labelled ligand.)

Each structure is given as a SMILES string. Counter-ions that a name gives are not always drawn. A value given as a limit tells only on which side of the number the result lay.

What is called melting point is the temperature of the solid-liquid transition.

T1 sequence (Q13639 whole entry): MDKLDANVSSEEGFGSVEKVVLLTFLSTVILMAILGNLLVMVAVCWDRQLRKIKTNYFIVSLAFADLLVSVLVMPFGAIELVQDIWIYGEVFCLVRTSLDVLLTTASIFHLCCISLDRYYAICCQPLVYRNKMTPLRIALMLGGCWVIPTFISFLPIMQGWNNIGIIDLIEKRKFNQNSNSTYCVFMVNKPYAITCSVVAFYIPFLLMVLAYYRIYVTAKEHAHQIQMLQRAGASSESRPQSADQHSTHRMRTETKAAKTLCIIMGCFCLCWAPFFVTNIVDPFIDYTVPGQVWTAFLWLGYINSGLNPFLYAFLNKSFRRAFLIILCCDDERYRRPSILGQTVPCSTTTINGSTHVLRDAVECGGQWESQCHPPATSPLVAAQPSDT

For `O=C(NCC1CCN(CCCc2nnn[nH]2)CC1O)c1cc(Cl)cc2c1OCCCO2` (stereo not drawn) (as salt: HCl) [Compound 7], the melting point was determined as 212 °C.

On to `Cc1cc2c(c(C(=O)NC[C@@H]3CCN(CCCc4cc(O)no4)C[C@H]3O)c1)OCCCO2` (hydrate or solvate) [Compound 23], for which the melting point was over 93 °C.

On to `Cc1cc2c(c(C(=O)NCC3CCN(CCCN4CC(=O)NC4=O)CC3O)c1)OCCCO2` (stereo not drawn) (hydrate or solvate) [Compound 24], for which the melting point is 135 °C.

With `Cc1cc2c(c(C(=O)NC[C@@H]3CCN(CCc4nnn[nH]4)C[C@H]3O)c1)OCCCO2` [Compound 19], the melting point was over 125 °C. In series [1], the “% metabolised compound after 60 minutes” value was found to be 1%. Further, on h5-HT4b, the IC50 was 46.8 nM.
